Patent US20120232062A1, “AZAINDAZOLES TO TREAT FLAVIVIRIDAE VIRUS INFECTION” (EIGER BIOPHARMACEUTICALS, INC., priority 2009, published 2012)
Where two headings read alike, the source gives them in different places.

Experiments:
HCV genotype 1b = assay: HCV 1b replicon luciferase assay; type: cell-based; conditions: Table 1, Huh7 HCV 1b replicon, luciferase reporter, 48 hours, read-out: 1b EC50
Summary of the method: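 Huh7 cells carrying a genotype 1b replicon with stable luciferase reporter, 10k cells/well, were treated 48 h at 37 °C with 10-point 5-fold dilutions from 25 μM (0.1% DMSO), in duplicate. Replication was read as Steady-Glo luminescence.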

[1] = Caco-2 permeability testing; type: in vitro ADME, human; conditions: human, 90 min; for Papp A→B at 90 min, 10 µM: read-out: Permeability (second figure of Efflux/permeability), Papp (A-B); for Papp B→A at 90 min, 10 µM: read-out: Efflux (first figure of Efflux/permeability), Papp (B-A)
From the text: Intestinal epithelium permeability is a critical characteristic that determines the rate and extent of human absorption and affects bioavailability of a drug candidate. Poor intestinal permeability leads to limited absorption. Generally, higher absorption is preferred. The Caco-2 cell line is a human colon adeno-carcinoma cell line that resembles the epithelial lining of the human small intestine. Several transport proteins that are expressed in human intestinal epithelium are also expressed in the Caco-2 cell model. Some transporter proteins are efflux systems which mediate the secretion of compounds from inside the cell back to the apical lumen (representative of the intestinal lumen), limiting overall absorption. In a permeability assay, the apparent permeability coefficient is measured between the apical to basolateral sides of a cell monolayer, Papp (A-B), and the basolateral to the apical side, Papp (B-A). Papp (A-B)<2×10^−6 cm/s is predictive of low permeability to the basolateral side, 2×10^−6 cm/s<Papp (A-B)<20×10^−6 cm/s is predictive of medium permeability, and Papp (A-B)>20×10^−6 cm/s is predictive of high permeability. In the B-A permeability assay, Papp (B-A) is measured and compounds evaluated for efflux potential. Together, these assay results are reported as a ratio of Papp (B-A) to Papp (A-B). Papp (B-A)/Papp (A-B)>3 are likely to be transported by one of the efflux systems, and have poor absorption. Papp (B-A)/Papp (A-B)<3 are likely to show reasonable intestinal absorption. An in vitro drug absorption assay suitable for use in predicting intestinal absorption of the compounds useful in the methods of the invention is described in this example. The embodiments of this assay described in this example were developed by Shanghai ChemPartner Co., Ltd., a corporation of China with its principal office located at 720 Cailun Road, Building No. 3, Shanghai 201203, China.
Caco-2 (ATCC, catalog No. HTB-37™) cells are cultured in growth medium (MEM+10% FBS+1% NEAA). The growth medium is prepared by adding 50 mL FBS and 5 mL NEAA to 445 mL of MEM or by adjusting the final volume according to actual needs. Trypsin-EDTA (Invitrogen, Cat #25200-072) is also used.
Hanks Balanced Salt Solution (HBSS, Invitrogen, Cat #14025-092) with 25 mM HEPES, pH 7.4, HBSS buffer with 0.2% DMSO (50 μL DMSO into 25 ml HBSS buffer), and HBSS buffer with 0.4% DMSO (100 μL DMSO into 25 ml HBSS buffer) are used.
10 mM stock solutions of a compound is prepared in DMSO and Lucifer Yellow in assay buffer using the formula (Actual Weight/Molecular Weight)/mL solvent=10 mM. Erythromycin, Metoprolol, and Atenolol are used as reference compounds. Donor solutions (10 μM for compounds and 5 μM for Lucifer Yellow) are prepared. For A-B, 4 μL of 10 mM compound stock solution and 2 μL of 10 mM Lucifer Yellow stock solution are loaded into 4 mL of HBSS buffer, and centrifuged (5 min, 4000 rpm) to precipitate undissolved particles. Supernatants are collected for compound dosing. For B-A, 4 μL (compounds) of 10 mM compound stock solution is added to 4 mL HBSS buffer with 0.2% DMSO, and centrifuged (5 min, 4000 rpm) to precipitate undissolved particles. Supernatants are collected for compound dosing.
Receiver solutions are prepared. For A-B, the solution is HBSS buffer with 0.4% DMSO. For B-A, 2 μL of 10 mM Lucifer Yellow stock solution is added to 4 mL of HBSS buffer with 0.2% DMSO. Compound solutions are prepared for standard curve (3 μM/1 μM/0.2 μM/0.04 μM/0.01 μM/0.005 μM):
1× solution: 3 μL of 20× solution (0.1-60 μM)+57 μL 0.4% DMSO HBSS+60 μL acetonitrile (ACN) with internal standard (IS, 200 ng/mL Osalmid). The assay was performed as described below
Stock cultures are maintained in MEM+10% FBS+1% NEAA, grown in 75 cm^2 tissue culture treated flasks and split (passed) 2 times weekly to maintain desired confluence. For maintenance passage, trypsinized cells are routinely distributed into new flasks at a standard passage ratio of 1:4. […]

Row | Compound | EC50 (HCV genotype 1b; Hepatitis C virus, Huh-7, 48 h) [µM] | Papp A→B at 90 min, 10 µM ([1]; Caco-2, pH 7.4, Caco-2, A-B) [×10⁻⁶ cm/s] | Papp B→A at 90 min, 10 µM ([1]; Caco-2, pH 7.4, Caco-2, B-A) [×10⁻⁶ cm/s] | other results
1 | CCCC(C)CN1CCC(NC(=O)c2nn(C)c3nc(N4CCCCCCC4)ccc23)CC1 (stereo not drawn) [compound 1308] | 0.48 | 0.4 | 0.2 | 
2 | CCN1CCC(NC(=O)c2nn(C)c3nc(N4CCCCCCC4)ccc23)CC1 [compound 1225] | 1.2 | 6.4 | 3.2 | 
3 | CN1CCC(NC(=O)c2nn(C)c3nc(N4CCCCCCC4)ccc23)CC1 [compound 1306] | 0.36 | 9.1 | 4.4 | 
4 | CC1CCCCN1CCN1CCC(NC(=O)c2nn(C)c3nc(N4CCCCCC4)ccc23)CC1 (stereo not drawn) [compound 1425] | 0.5 | 3 | 4 | 
5 | O=C(NC1CCN(CCN2CCCCC2)CC1)c1nn(CC(F)F)c2nc(N3CCCCCC3)ccc12 [compound 1488] | 0.64 | 3.3 | 3.5 | 
6 | Cn1nc(C(=O)NC2CCN(CCN3CCCCCC3)CC2)c2ccc(N3CCCCCCC3)nc21 [compound 1310] | 0.23 | 1.3 | 2.1 | 
7 | Cn1nc(C(=O)NC2CCN(CCN3CCCC3)CC2)c2ccc(NC3CCCCCCC3)nc21 [compound 1469] | 0.25 | 0.9 | 2.9 | 
8 | CC(C)N1CCC(NC(=O)c2nn(C)c3nc(N4CCCCCCC4)ccc23)CC1 [compound 1307] | 1 | 9.6 | 4.2 | 
9 | O=C(NC1CCNCC1)c1nn(Cc2ccccc2Cl)c2nc(N3CCCCCC3)ccc12 [compound 853] | 2.9 |  |  | Papp A→B at 90 min, 10 µM ([1]; pH 7.4, Caco-2, A-B): 0.4 ×10⁻⁶ cm/s; Papp B→A at 90 min, 10 µM ([1]; pH 7.4, Caco-2, B-A): 0.4 ×10⁻⁶ cm/s
10 | Clc1ccc(Cn2nc(COCCN3CCCC3)c3ccc(N4CCCCCCC4)nc32)cc1 [compound 1203] | 3.3 | 7.8 | 7.3 | 
11 | Cn1nc(C(=O)NC2CCN(CC3CCOCC3)CC2)c2ccc(N3CCCCCC3)nc21 [compound 1072] | 2.5 | 5.4 | 4.6 | 
12 | Cn1nc(-c2cnc(C(=O)NCc3cccs3)s2)c2ccc(N3CCCCCC3)nc21 [compound 1129] | 0.83 | 6 | 4 | 
13 | Cn1nc(C(=O)NC2CCN(CCN3CCC(CO)CC3)CC2)c2ccc(N3CCCCCC3)nc21 [compound 1560] | 0.86 | 2 | 13.1 | 
14 | Cn1nc(C(=O)NC2CCN(CC3CCCCC3)CC2)c2ccc(N3CCCCCCC3)cc21 [compound 1150] | 0.6 | 1.4 | 5.7 | 
15 | Cn1nc(C(=O)NC2CCN(S(C)(=O)=O)CC2)c2ccc(N3CCCCCC3)nc21 [compound 1063] |  | 50 | 16 | EC50 (HCV genotype 1b): 3.9 µM
16 | Cc1ccc(C(=O)Nc2nn(C)c3nc(N4CCCCCC4)ccc23)s1 [compound 841] | 1.6 | 9.7 | 1.9 | 
17 | Cn1nc(C(=O)NC2CCN(CCN3CCOCC3)CC2)c2ccc(NC3CCCCCCC3)nc21 [compound 1471] | 0.87 | 10.9 | 9.6 | 
18 | O=C(NC1CCCNC1)c1nn(-c2ccccc2)c2nc(N3CCCCCC3)ccc12 (stereo not drawn) [compound 1349] | 5 |  |  | 
19 | C[C@@H]1CCCN1CCN1CCC(NC(=O)c2nn(C)c3nc(N4CCCCCC4)ccc23)CC1 [compound 1424] | 0.79 |  |  | 
20 | Cn1nc(C(=O)NC2CCN(CCN3CCC[C@H]3CO)CC2)c2ccc(N3CCCCCC3)nc21 [compound 1561] | 3.8 |  |  | 
21 | Cn1nc(C(=O)NC2CCNCC2)c2ccc(OC3CCCCCC3)nc21 [compound 873] | 4.7 |  |  | 
22 | CN(c1ccc2c(C(=O)NC3CCNCC3)nn(C)c2n1)C1CCCCCCC1 [compound 893] | 1.1 |  |  | 

Row | Compound | EC50 (HCV genotype 1b; Hepatitis C virus, Huh-7, 48 h) [µM] | Papp A→B at 90 min, 10 µM ([1]; Caco-2, pH 7.4, Caco-2, A-B) [×10⁻⁶ cm/s] | Papp B→A at 90 min, 10 µM ([1]; Caco-2, pH 7.4, Caco-2, B-A) [×10⁻⁶ cm/s] | other results
23 | CCCn1nc(C(=O)NC2CCNCC2)c2ccc(N3CCCCCC3)nc21 [compound 858] | 3.3 |  |  | 
24 | COC[C@@H]1CCCN1CCN1CCC(NC(=O)c2nn(C)c3nc(N4CCCCCC4)ccc23)CC1 [compound 1556] | 2.9 |  |  | 
25 | CCC(CC)Oc1ccc2c(NC(=O)C3CCNCC3)nn(C)c2n1 [compound 962] | 4.4 |  |  | 
26 | Cn1nc(CCCN2C[C@@H](O)[C@@H](O)C2)c2ccc(N3CCCCCCC3)nc21 [compound 1495] | 4.7 |  |  | 
27 | Cn1nc(C(=O)NC2CCNCC2)c2ccc(OC3CCCC3)nc21 [compound 912] | 6.9 |  |  | 
28 | Cn1nc(-c2nnc(C3CCN(CC(F)F)CC3)o2)c2ccc(N3CCCCCCC3)nc21 [compound 1323] | 4.4 |  |  | 
29 | Cn1nc(CCCN2CC[C@H](O)C2)c2ccc(N3CCCCCCC3)nc21 [compound 1458] | 3.2 |  |  | 
30 | Cn1nc(-c2cnc(C(=O)NC3CCCNC3)s2)c2ccc(N3CCCCCC3)nc21 (stereo not drawn) [compound 1128] | 0.49 |  |  | 
31 | Cn1nc(C(=O)NC2CCN(CCCC3CCCCC3)CC2)c2ccc(N3CCCCCC3)nc21 [compound 1031] | 0.69 |  |  | 
32 | Cn1nc(-c2nnc([C@@H]3CCCN3CCN3CCCCC3)o2)c2ccc(N3CCCCCCC3)nc21 [compound 1364] | 2.2 |  |  | 
33 | Cn1nc(CCCN2CC=CC2)c2ccc(N3CCCCCCC3)nc21 [compound 1461] | 2.6 |  |  | 
34 | C=CCCCCn1nc(C(=O)NC2CCN(CC=C)CC2)c2ccc(N3CCCCCC3)nc21 [compound 1105] | 7.5 |  |  | 
35 | CN1C2CCC1CC(NCc1nn(C)c3nc(N4CCCCCC4)ccc13)C2 (stereo not drawn) [compound 910] | 3.9 |  |  | 
36 | O=C(NC1CCCNC1)c1nnc2n(Cc3ccc(Cl)cc3)c(N3CCCCCC3)ccc1-2 (stereo not drawn) [compound 710] | 7.9 |  |  | 
37 | CCC(CC)Oc1ccc2c(NC(=O)[C@H]3CC[C@@H](N)CC3)nn(C)c2n1 [compound 951] | 7.8 |  |  | 
38 | Cc1ccc(CN2CCC(NC(=O)c3nn(C)c4nc(N5CCCCCCC5)ccc34)CC2)cc1 [compound 1224] | 2.7 |  |  | 
39 | Cn1nc(C(=O)NC2CCN(CCN3CC[C@@H](O)C3)CC2)c2ccc(N3CCCCCC3)nc21 [compound 1558] | 3.4 |  |  | 
40 | Cn1nc(C(=O)NC2CCNCC2)c2ccc(N3CCC(Cc4ccccc4)CC3)nc21 [compound 868] | 2.4 |  |  | 
41 | Cn1nc(C(=O)NC2CCNCC2)c2ccc(OCc3ccccc3-c3cccc(Cl)c3)nc21 [compound 1088] | 1.4 |  |  | 
42 | Cn1nc(-c2nnc(C3CCN(CCN4CCCCC4)CC3)o2)c2ccc(N3CCCCCCC3)nc21 [compound 1373] | 0.63 |  |  | 
43 | O=C(NCC1CCCNC1)c1nn(Cc2ccc(Cl)cc2)c2nc(N3CCCCCC3)ccc12 (stereo not drawn) [compound 850] | 2.5 |  |  | 
44 | CC1CC(NC(=O)c2nn(Cc3ccc(Cl)cc3)c3nc(N4CCCCCC4)ccc23)CCN1 (stereo not drawn) [compound 708] | 2.4 |  |  | 
